Article doi:10.1101/757047v1 (biorxiv, 2019)

How the values were obtained:
STK10 = STK10 (Homo sapiens, UniProt O94804); assay: biochemical
SLK = SLK (Homo sapiens, UniProt Q9H2G2); assay: biochemical
Sequence of SLK (Q9H2G2 34-292): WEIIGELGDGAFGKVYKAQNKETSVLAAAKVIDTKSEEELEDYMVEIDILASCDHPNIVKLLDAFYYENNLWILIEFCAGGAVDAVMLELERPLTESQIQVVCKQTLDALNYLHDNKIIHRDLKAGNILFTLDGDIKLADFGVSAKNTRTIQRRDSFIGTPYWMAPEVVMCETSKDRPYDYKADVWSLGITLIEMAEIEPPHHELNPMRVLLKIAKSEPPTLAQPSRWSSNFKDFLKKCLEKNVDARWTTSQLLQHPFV

Sequence of STK10 (O94804 36-294 limits assumed): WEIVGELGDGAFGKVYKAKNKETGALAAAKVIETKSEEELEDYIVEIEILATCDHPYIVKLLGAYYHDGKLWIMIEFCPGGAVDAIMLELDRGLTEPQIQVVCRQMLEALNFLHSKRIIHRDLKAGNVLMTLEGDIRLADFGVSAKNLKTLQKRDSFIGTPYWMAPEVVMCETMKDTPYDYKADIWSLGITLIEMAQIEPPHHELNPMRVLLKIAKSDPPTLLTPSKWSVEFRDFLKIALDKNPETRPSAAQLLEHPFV

In the case of `C#Cc1cccc(Nc2c(C#N)cnc3cc(OC)c(OC)cc23)c1` [compound 82], the Ki (STK10) is reported as 27 nM and the Ki (SLK) is reported as 18 nM.
